These results are taken from patent US20140023611A1 (priority 2010, published 2014).

Usually AUC stands for the area under the concentration-time curve, a measure of exposure. A high value points to more exposure. Broadly, the Cmax is the highest concentration seen after dosing.

SMILES strings stand for the structures. Bounds are passed on as bounds.

Data set [1] concerns the target T1, rat NaP2b (SLC34A2) (Rattus norvegicus, UniProt Q9JJ09).
T1 construct: host or cells: HEK293
T1 sequence (Q9JJ09 1-695): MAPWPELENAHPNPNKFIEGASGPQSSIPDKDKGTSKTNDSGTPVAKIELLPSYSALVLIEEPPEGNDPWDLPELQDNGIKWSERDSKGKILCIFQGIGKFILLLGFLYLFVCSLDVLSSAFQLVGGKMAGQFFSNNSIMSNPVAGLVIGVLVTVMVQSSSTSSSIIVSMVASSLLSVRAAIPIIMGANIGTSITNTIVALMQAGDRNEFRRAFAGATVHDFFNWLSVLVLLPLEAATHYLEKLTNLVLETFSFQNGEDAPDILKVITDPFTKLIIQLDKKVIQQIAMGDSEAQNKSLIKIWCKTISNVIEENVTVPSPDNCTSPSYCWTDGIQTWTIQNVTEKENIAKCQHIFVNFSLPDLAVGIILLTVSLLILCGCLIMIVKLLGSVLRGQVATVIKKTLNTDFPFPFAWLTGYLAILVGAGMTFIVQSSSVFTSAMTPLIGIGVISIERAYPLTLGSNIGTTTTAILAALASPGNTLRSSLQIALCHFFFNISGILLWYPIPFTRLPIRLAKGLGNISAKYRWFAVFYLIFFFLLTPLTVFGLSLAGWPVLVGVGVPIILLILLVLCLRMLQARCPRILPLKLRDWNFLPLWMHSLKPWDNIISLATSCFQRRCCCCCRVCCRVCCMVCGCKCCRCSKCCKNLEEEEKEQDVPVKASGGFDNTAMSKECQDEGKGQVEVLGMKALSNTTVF
The data set can be described thus: NaP2b-mediated Pi transport (33P uptake) in transfected HEK293 cells, rat NaP2b. The format is cell-based. Conditions: Structure (V) examples, Table 2; rat NaP2b, HEK293; read-out: pIC50 Range (converted). Here is the method:
HEK293 cells were obtained from the American Type Culture collection and propagated per their instructions. Expression clones for rat and human NaP2b (SLC34A2) were obtained from Open Biosystems (Catalog numbers MRN1768-9510282, and MHS1010-99823026, respectively). The sequence of the human protein was mutated to insert a threonine after residue 37, and to introduce a N39D mutation.
The rate of phosphate (Pi) uptake into HEK293 cells was measured using a modification of the method described by Mohrmann et al. (Mohrmann, I., Mohrmann, M., Biber, J., and Murer, H. (1986) Am. J. Phys. 250(3 Pt 1):G323-30.) Transfected HEK293 cells were treated with a pharmacological agent to minimize endogenous PiT-mediated phosphate transport activity, such that the only remaining sodium-dependent phosphate transport activity is that which was bestowed by introduction of the NaP2b genes.
(§1) Cells were seeded into 96-well plates at 25,000 cells/well and cultured overnight. Lipofectamine 2000 (Invitrogen) was used to introduce the NaP2b cDNA, and the cells were allowed to approach confluence during a second overnight incubation. […] Cells were then overlayed with either choline uptake buffer or sodium uptake buffer (14 mM Tris, 137 mM sodium chloride, 5.4 mM KCl, 2.8 mM CaCl2, 1.2 mM MgSO4, 100 uM KH2PO4, PiT-silencing agent, 1 mg/mL Bovine Serum Albumin, pH 7.4) containing 6-9 uCi/mL ^33P orthophosphoric acid (Perkin Elmer) and test compound. Each compound was tested at twelve concentrations ranging from 0.1 nM to 30 uM. Assays were run in duplicate.
After incubation for 3-30 minutes at room temperature, assay mixtures were removed, and the cells were washed twice with ice cold stop solution (137 mM sodium chloride, 14 mM Tris, pH 7.4). Cells were lysed by addition of 20 μL 0.1% Tween 80 followed by 100 μL scintillation fluid, and counted using a TopCount (Perkin Elmer).
pIC50 (the negative log of the IC50) values of the test compounds were calculated using GraphPad Prism.
HEK293 cells were obtained from the American Type Culture collection and propagated per their instructions. Expression clones for rat and mouse NaP2b (SLC34A2) cDNAs were obtained from Open Biosystems (Catalog numbers MRN1768-9510282 and MMM1013-98478398 respectively).
The rate of phosphate uptake into HEK293 cells was measured using a modification of the method described by Mohrmann et al. (Mohrmann, I., Mohrmann, M., Biber, J., and Murer, H. (1986) Am. J. Phys. 250(3 Pt 1):G323-30.) Transfected HEK293 cells were treated with a pharmacological agent to minimize endogenous PiT-mediated phosphate transport activity, such that the only remaining sodium-dependent phosphate transport activity is that which was bestowed by introduction of the NaP2b genes.
as §1, with “agent, 0.1% wt/v bovine serum albumin,” for “agent, 1 mg/mL Bovine Serum Albumin,”, “Each compounds” for “Each compound”
After incubation for 3-30 minutes at room temperature, assay mixtures were removed, and the cells were washed twice with ice cold stop solution (137 mM sodium chloride, 14 mM Tris, pH 7.4).

Data set [2] can be described thus: Fecal recovery of orally administered compounds. It is filed as in vivo, Sprague-Dawley rats. Particulars: Structure (I) examples, Table 16; rat, oral gavage, feces collected until 48 hr after dosing.
From the text: The animals were kept in metabolic cages and feces were collected from the time of dosing until 48 hr after dosing. Upon collection, feces were dried by lyophilization and ground to a visually homogenous powder. Duplicate samples of ground feces from each individual animal were weighed out and extracted using organic solvent. […] Extraction conditions were not optimized for individual compounds, and thus may represent a minimal level of recovery.
(§2) The animals were kept in metabolic cages and feces were collected from the time of dosing until 48 hr after dosing. Upon collection, feces was dried by lyophilization and ground to a visually homogenous powder. Duplicate samples of ground feces from each individual animal were weighed out and extracted using organic solvent. […] Extraction conditions were not optimized for individual compounds, and thus may represent a minimal level of recovery.
as §2
The animals were kept in metabolic cages and feces were collected from the time of dosing until 48 hr after dosing. Upon collection, feces was dried by lyophilization and ground to a visually homogenous powder. Duplicate samples of ground feces from each individual animal were weighed out and extracted using organic solvent.

The nature of data set [3]: Stability of compounds in simulated intestinal fluid (SIF). It is filed as in vitro ADME. Conditions: simulated intestinal fluid (3 mg/mL pancreatin), incubation time 6 hr, relative to t=0. The method, boiled down:
(§3)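 Compounds at […] were incubated 3 or 6 hr in USP simulated gastric fluid with 3 mg/mL pepsin or simulated intestinal fluid with 3 mg/mL pancreatin. Remaining compound was quantified by HPLC-UV or HPLC-MS peak area % and reported as percent of the t=0 level in the same medium.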

Data set [4] has as its target T1, rat NaP2b (SLC34A2). Put plainly: Inhibition of NaP2b-mediated Pi (33P) uptake in transfected HEK293 cells, rat NaP2b. The format is cell-based. Conditions: 33P Pi uptake, 0.1 mM phosphate, value given as pIC50 range. The procedure, abridged: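 HEK293 cells were transiently transfected with NaP2b cDNA using Lipofectamine and grown near confluence. Compounds were tested at twelve concentrations from 0.1 nM to 30 uM in duplicate, and 33P-phosphate uptake was counted by scintillation after lysis. Results are expressed as pIC50.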

The nature of data set [5]: Determination of compound Cmax and AUC after oral gavage (plasma LC-MS/MS). The format is in vivo, Sprague-Dawley rats. Particulars: Sprague-Dawley, rat, plasma, po, Structure (I) examples. The procedure, abridged:
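Sprague-Dawley rats dosed by oral gavage at nominal 2.5 or 10 mg/kg; blood drawn at 0.5, 1, 2 and 4 h into K2EDTA. Plasma protein-precipitated with acetonitrile plus internal standard and analysed by LC-MS/MS against a plasma standard curve to derive Cmax and AUC.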

A short description of data set [6]: Stability of compounds in simulated gastric fluid (SGF). It is filed as in vitro ADME. Conditions: simulated gastric fluid (3 mg/mL pepsin), incubation time 6 hr, relative to t=0. The procedure, abridged: as §3
Data set [7] has as its target T2, human NaP2b (SLC34A2) (Homo sapiens, UniProt O95436).
T2 construct: host or cells: HEK293
T2 sequence (O95436 1-690): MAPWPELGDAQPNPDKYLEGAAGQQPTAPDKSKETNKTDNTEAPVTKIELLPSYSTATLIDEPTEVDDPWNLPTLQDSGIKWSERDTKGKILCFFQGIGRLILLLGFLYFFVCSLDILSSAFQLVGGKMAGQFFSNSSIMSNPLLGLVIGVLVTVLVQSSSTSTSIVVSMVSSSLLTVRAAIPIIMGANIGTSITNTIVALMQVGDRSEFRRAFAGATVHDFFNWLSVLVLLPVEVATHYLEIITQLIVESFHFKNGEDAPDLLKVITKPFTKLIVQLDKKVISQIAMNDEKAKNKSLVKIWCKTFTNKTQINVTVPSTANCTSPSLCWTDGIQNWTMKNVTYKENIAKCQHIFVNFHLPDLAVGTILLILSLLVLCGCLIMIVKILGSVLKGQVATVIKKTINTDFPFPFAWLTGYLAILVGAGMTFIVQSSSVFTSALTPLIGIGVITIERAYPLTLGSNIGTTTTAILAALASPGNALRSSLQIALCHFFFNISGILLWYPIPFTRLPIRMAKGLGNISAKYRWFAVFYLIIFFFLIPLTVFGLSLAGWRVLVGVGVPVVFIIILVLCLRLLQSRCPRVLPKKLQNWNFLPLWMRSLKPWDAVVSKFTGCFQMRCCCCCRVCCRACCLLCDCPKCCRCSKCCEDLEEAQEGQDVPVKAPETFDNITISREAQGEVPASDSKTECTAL
Put plainly: Inhibition of NaP2b-mediated Pi (33P) uptake in transfected HEK293 cells, human NaP2b. Conditions: read-out: pIC50 range for human NaP2b (converted). It is filed as cell-based. The procedure, abridged:
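HEK293 cells transiently transfected with human NaP2b (Thr inserted after residue 37, N39D), endogenous PiT transport pharmacologically silenced. Sodium or choline buffer, pH 7.4, with 100 uM KH2PO4, 33P orthophosphate and compound (0.1 nM–30 uM, twelve concentrations, duplicate). 3-30 min at room temperature, scintillation counting, pIC50 derived.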

The mark [8] stands for this setting: Table 15, actual oral dose 3-15 mg/kg, plasma 0.5-4 h.

In the case of `O=C(Nc1ccc(N2CCCCC2)cc1C(=O)N/N=C/c1ccc(Cl)c(C(F)(F)F)c1)c1cccc(Cn2cc(CCOCCOCCOCCNC(=O)C(O)C(O)C(=O)O)nn2)c1` (centres unmarked) [Ex. 27], in data set [1], the IC50 was 10 to 100 µM.

As to `CC(C)(SCc1cccc(C(=O)Nc2ccc(N3CCCCC3)cc2-c2cc(C(=O)NCc3cccc(C(F)(F)F)c3)ccn2)c1)C(=O)O` [Example 8.6], the “% recovered in feces” value in data set [2] is 20-80%. In data set [3], the “% remaining, SIF” value was above 80%. The same compound gave an IC50 in data set [4] of 1 to 7.94 µM. In data set [5] (setting [8]), this compound came in with an exposure (AUC) above 0.05 µg·h/mL and a maximum concentration (Cmax) below 50 ng/mL. The “% remaining, SGF” value in data set [6] was above 80%.

Consider `O=C(O)CCOCCOCCOCCNC(=O)Cc1cccc(SCc2cccc(C(=O)Nc3ccc(N4CCCCC4)cc3-c3cc(C(=O)NCc4cccc(C(F)(F)F)c4)ccn3)c2)c1` [Example 137], for which the “% recovered in feces” value in data set [2] is below 20%. In addition, the “% remaining, SIF” value in data set [3] is above 80%. Further, in data set [4], the IC50 was 1 to 7.94 µM. For the same compound, in data set [5] (setting [8]), the area under the curve (AUC) was below 0.01 µg·h/mL and the Cmax is below 10 ng/mL. For the same compound, the “% remaining, SGF” value in data set [6] was above 80%.

Consider `CCN(CC)c1ccc(NC(=O)c2cccc(CCCOCCOCCOCCOCCC(=O)N3CCN(C(=O)c4cccc(CCCOCCOCCOCCOCCOCCOCCOCCOCCOC)c4)CC3)c2)c(-c2cc(C(=O)NCc3cccc(C(F)(F)F)c3)ccn2)c1` [Example 262, 2-(2-(3-(16-(4-(3-(2,5,8,11,14,17,20,23,26-nonaoxanonacosan-29-yl)benzoyl)piperazin-1-yl)-16-oxo-4,7,10,13-tetraoxahexadecyl)benzamido)-5-(diethylamino)phenyl)-N-(3-(trifluoromethyl)benzyl)isonicotinamide], for which the IC50 in data set [7] and in data set [4] was 1 to 7.94 µM in each case. Further, in data set [2], the “% recovered in feces” value is on record as 20-80%. The compound also had an AUC in data set [5] (Table 15, actual oral dose 15-40 mg/kg, plasma 0.5-4 h) below 0.05 µg·h/mL. This compound also gave a Cmax in data set [5] (Table 15, plasma 0.5-4 h) below 10 ng/mL.

For `O=C(O)CCOCCOCCOCCNC(=O)c1cccc(SCc2cccc(C(=O)Nc3ccc(Cl)cc3-c3cc(C(=O)NCc4cccc(C(F)(F)F)c4)ccn3)c2)c1` [Example 264, 1-(3-(3-(4-chloro-2-(4-(3-(trifluoromethyl)benzylcarbamoyl)pyridin-2-yl)phenylcarbamoyl)benzylthio)phenyl)-1-oxo-5,8,11-trioxa-2-azatetradecan-14-oic acid], the “% recovered in feces” value in data set [2] is reported as below 20%. For the same compound, the “% remaining, SIF” value in data set [3] is above 80%. Moreover, the IC50 in data set [4] is 10 to 31.6 µM. In data set [5] (setting [8]), this compound showed an AUC below 0.01 µg·h/mL and a Cmax below 10 ng/mL. Moreover, the “% remaining, SGF” value in data set [6] is on record as 40-60%.

For the compound `CCN(CC)c1ccc(NC(=O)c2cccc(CCCOCCOCCOCCOCCNS(=O)(=O)c3ccc(CCC(=O)O)cc3)c2)c(-c2cc(C(=O)NCc3cccc(C(F)(F)F)c3)ccn2)c1` [Example 294, 3-(4-(N-(15-(3-(4-(diethylamino)-2-(4-(3-(trifluoromethyl)benzylcarbamoyl)pyridin-2-yl)phenylcarbamoyl)phenyl)-3,6,9,12-tetraoxapentadecyl)sulfamoyl)phenyl)propanoic acid], in data set [7], the IC50 was below 1 µM. In addition, the “% recovered in feces” value in data set [2] is listed as above 80%. Further, the IC50 in data set [4] is below 1 µM. Moreover, in data set [5] (setting [8]), the exposure (AUC) was above 0.05 µg·h/mL and the Cmax was below 10 ng/mL.
